Bridges are numbered along the chain shown (N, C = ends). Where no end group is shown, it is not given here.
Key:
[1] = test system: tumor cells; test: Histology of lung tissue after fatpad implantation or intravenous injection of tumor cells; assay type: in vivo, mice; conditions: four weeks after fatpad implantation or two weeks after intravenous injection of tumor cells, versus TAT
Source text: FIGS. 8A-8B are computer-generated photomicrographs of lung tissue from mice four weeks following fatpad implantation of tumor cells. Osmotic pumps were implanted 1 week after fatpad implantation, for delivering TAT (control; FIG. 8A) or αV5-3-TAT peptide (PKC a inhibitor; FIG. 8B).
FIGS. 8C-8D are computer-generated photomicrographs of lung tissue from mice two weeks after intravenous injection of tumor cells. Osmotic pumps were implanted two days prior to […], for delivering TAT (control; FIG. 8C) or αV5-3-TAT peptide (PKC a inhibitor; FIG. 8D).
FIGS. 8A-8D are computer-generated photomicrographs of lung tissue from mice four weeks following fatpad implantation of tumor cells (FIGS. 8A-8B) or two weeks after intravenous injection of tumor cells (FIGS. 8C-8D).

[2] = test system: JC cells; test: Wound healing (migration) assay, JC; assay type: cell-based, mouse; conditions: peptide 1 uM, re-applied every 2 h for 8 h
Description: FIGS. 15A-15D are micrographs showing the efficacy of TAT carrier peptide (TAT; FIG. 15A), αV5-3-TAT peptide (Alpha; FIG. 15B), βIIV5-3 peptide (Beta2; FIG. 15C), and εV1-2 (Epsilon; FIG. 15D) on JC cell migration.
To investigate the role of PKC inhibitors in reducing the migration of tumor cells, in vitro migration assays were performed using MDA-MB-231 breast cancer cells (FIGS. 12A-12D), MCF-7 breast cancer cell (FIGS. 13A-13D), JC cells (FIGS. 15A-15D), and 4T1 cells (FIGS. 16A-16D), in the presence of TAT carrier peptide (TAT), αV5-3-TAT peptide (Alpha), βIIV5-3 peptide (Beta2), or εV1-2 peptide (Epsilon).
Wound healing assay: Human or mouse breast cancer cell lines were grown in 6-well plates until about 90% confluent. Cells were then grown in serum free media overnight, before media was changed to media +1% FBS and peptide PKC inhibitors added (1 uM), at the same time a pipette tip was drawn across the cell layer to create a scrape ‘wound’. PKC inhibitors were re-applied every 2 h for a total of 8 h, before cells were left for a further 12 h and then the scrape was examined under phase contrast microscopy.

Substance: YGRKKRRQRRR-CC-QLVIAN (YGRKKRRQRRRCCQLVIAN; disulfide 12-13 (inferred)) [αV5-3-TAT]
- invasion of lung tissues by tumor cells (histology) [1]: reduced
- migration of JC cells [2]: reduced

— US20090137493A1, “Inhibition of tumor metastases using protein kinase C (PKC) inhibitors” (priority 2007, published 2009)
